Assay results as given in patent publication US9113629B2, “4-amino-6-(4-substituted-phenyl)-picolinates and 6-amino-2-(4-substituted-phenyl)-pyrimidine-4-carboxylates and their use as herbicides” (DOW AGROSCIENCES LLC, priority 2013, dated 2015).
Read-outs that look alike come from different tables or passages of the source.

Columns and labels:
[1] = tested on: Key Grass and Sedge Weeds as well as Grass Crops; assay: Post-emergent Test II herbicidal activity (Table 6); type: in vivo; settings: post-emergence, 336 h; for pest or weed control at 70 g/ha: 70 g ai/ha; for pest or weed control at 140 g/ha: 140 g ai/ha
In short: (§1)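 Plants grown in Metro-Mix 360 (pH 6.0–6.8) in a greenhouse (~15 h photoperiod, 23–29 °C day) to first or second true leaf stage, then sprayed with compound in acetone/DMSO/aqueous crop-oil-surfactant carrier at 187 L/ha by track sprayer. Injury visually scored 0–100% versus untreated plants after 14 d.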

[2] = tested on: Key Broadleaf Weed and Crop Species; assay: Post-emergent Test II herbicidal activity (Table 5); type: in vivo; settings: post-emergence, 336 h, 14 days after application; for pest or weed control at 70 g/ha: application rate 70 g ai/ha; for pest or weed control at 140 g/ha: application rate 140 g ai/ha
In short: as §1

[3] = CYPES: yellow nutsedge (Cyperus esculentus), read-out: Visual Growth Reduction (%) 14 Days After Application, CYPES
[4] = DIGSA: crabgrass (Digitaria sanguinalis), read-out: Visual Growth Reduction (%) 14 Days After Application, DIGSA
[5] = ECHCG: barnyardgrass (Echinochloa crus-galli), read-out: Visual Growth Reduction (%) 14 Days After Application, ECHCG
[6] = ORYSA: rice (Oryza sativa), crop, read-out: Visual Growth Reduction (%) 14 Days After Application, ORYSA
[7] = SETFA: giant foxtail (Setaria faberi), read-out: Visual Growth Reduction (%) 14 Days After Application, SETFA
[8] = SORVU: grain sorghum (Sorghum vulgare), read-out: Visual Growth Reduction (%) 14 Days After Application, SORVU
[9] = TRZSS (wheat, Triticum aestivum), crop, read-out: Visual Growth Reduction (%) 14 Days After Application, TRZSS
[10] = ZEAMX: maize, corn (Zea mays), crop, read-out: Visual Growth Reduction (%) 14 Days After Application, ZEAMX
[11] = ABUTH: velvetleaf (Abutilon theophrasti), read-out: Visual Growth Reduction (%) 14 Days After Application, ABUTH
[12] = AMARE: redroot pigweed (Amaranthus retroflexus), read-out: Visual Growth Reduction (%) 14 Days After Application, AMARE
[13] = BRSNN: oilseed-rape, canola (Brassica napus), read-out: Visual Growth Reduction (%) 14 Days After Application, BRSNN
[14] = CHEAL: lambsquarters (Chenopodium album), read-out: Visual Growth Reduction (%) 14 Days After Application, CHEAL
[15] = EPHHL: wild poinsettia (Euphorbia heterophylla), read-out: Visual Growth Reduction (%) 14 Days After Application, EPHHL
[16] = HELAN: sunflower (Helianthus annuus), read-out: Visual Growth Reduction (%) 14 Days After Application, HELAN
[17] = VIOTR: wild pansy (Viola tricolor), read-out: Visual Growth Reduction (%) 14 Days After Application, VIOTR

Q: Which results are given for `Nc1cc(-c2ccc(Br)cc2)nc(C(=O)O)c1Cl` [Compound 168]?
A: pest or weed control at 70 g/ha [1, 3]: 95 to 100%; pest or weed control at 140 g/ha [1, 3]: 95 to 100%; pest or weed control at 70 g/ha [1, 4]: 75 to 84%; pest or weed control at 140 g/ha [1, 4]: 75 to 84%; pest or weed control at 70 g/ha [1, 5]: 95 to 100%; pest or weed control at 140 g/ha [1, 5]: 95 to 100%; pest or weed control at 70 g/ha [1, 6]: 0 to 29%; pest or weed control at 140 g/ha [1, 6]: 0 to 29%; pest or weed control at 70 g/ha [1, 7]: 95 to 100%; pest or weed control at 140 g/ha [1, 7]: 95 to 100%; pest or weed control at 70 g/ha [1, 8]: 95 to 100%; pest or weed control at 140 g/ha [1, 8]: 95 to 100%; pest or weed control at 70 g/ha [1, 9]: 60 to 74%; pest or weed control at 140 g/ha [1, 9]: 60 to 74%; pest or weed control at 70 g/ha [1, 10]: 95 to 100%; pest or weed control at 140 g/ha [1, 10]: 95 to 100%; pest or weed control at 70 g/ha [2, 11]: 95 to 100%; pest or weed control at 140 g/ha [2, 11]: 95 to 100%; pest or weed control at 70 g/ha [2, 12]: 95 to 100%; pest or weed control at 140 g/ha [2, 12]: 95 to 100%; pest or weed control at 70 g/ha [2, 13]: 95 to 100%; pest or weed control at 140 g/ha [2, 13]: 95 to 100%; pest or weed control at 70 g/ha [2, 14]: 95 to 100%; pest or weed control at 140 g/ha [2, 14]: 95 to 100%; pest or weed control at 70 g/ha [2, 15]: 95 to 100%; pest or weed control at 140 g/ha [2, 15]: 95 to 100%; pest or weed control at 70 g/ha [2, 16]: 95 to 100%; pest or weed control at 140 g/ha [2, 16]: 95 to 100%; pest or weed control at 70 g/ha [2, 17]: 0 to 29%; pest or weed control at 140 g/ha [2, 17]: 30 to 44%
